Measurements published in patent publication US12649751B2 (Arcus Biosciences, Inc., priority 2022, dated 2026).
Like-named read-outs stand apart in the source and are kept apart here.

Legend:
HPK1 = HPK1 (Homo sapiens, UniProt Q92918); experiment: HPK1 Biochemical Assay (ADP-Glo luminescence; low ATP 10 μM or high ATP 200 μM)
[1] = system: p-SLP-76 (Ser376) in Jurkat cells; experiment: pSLP76 Cellular Assay (AlphaLISA SureFire Ultra p-SLP-76 (Ser376), anti-CD3 activated Jurkat cells); assay type: cell-based; conditions: Homo sapiens, read-out: Cellular Potency
Summary of the method: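 Read-out is AlphaLISA p-SLP-76 (Ser376) signal at 570 nm in Jurkat lysates, with IC50 fitted by 4-parameter logistic. Cells were starved overnight, exposed 1 h at 37 °C to 22 twofold compound dilutions in HBSS, then activated 45 min with anti-CD3 (0.025 mg/ml stock added).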

[2] = 2 nM HPK1, 10 μM ATP, read-out: Biochemical Potency (low ATP)
[3] = Jurkat cells, anti-CD3 stimulation, pSLP76
[4] = HPK1 ADP-Glo assay, high ATP (200 μM ATP, 5 nM HPK1), read-out: Biochemical Potency (high ATP)
[5] = pSLP76 (Ser376) AlphaLISA, anti-CD3 activated Jurkat cells
[6] = HPK1 ADP-Glo assay, low ATP (10 μM ATP, 2 nM HPK1), read-out: Biochemical Potency (low ATP)

Sequence of HPK1 (Q92918 whole entry, species assumed): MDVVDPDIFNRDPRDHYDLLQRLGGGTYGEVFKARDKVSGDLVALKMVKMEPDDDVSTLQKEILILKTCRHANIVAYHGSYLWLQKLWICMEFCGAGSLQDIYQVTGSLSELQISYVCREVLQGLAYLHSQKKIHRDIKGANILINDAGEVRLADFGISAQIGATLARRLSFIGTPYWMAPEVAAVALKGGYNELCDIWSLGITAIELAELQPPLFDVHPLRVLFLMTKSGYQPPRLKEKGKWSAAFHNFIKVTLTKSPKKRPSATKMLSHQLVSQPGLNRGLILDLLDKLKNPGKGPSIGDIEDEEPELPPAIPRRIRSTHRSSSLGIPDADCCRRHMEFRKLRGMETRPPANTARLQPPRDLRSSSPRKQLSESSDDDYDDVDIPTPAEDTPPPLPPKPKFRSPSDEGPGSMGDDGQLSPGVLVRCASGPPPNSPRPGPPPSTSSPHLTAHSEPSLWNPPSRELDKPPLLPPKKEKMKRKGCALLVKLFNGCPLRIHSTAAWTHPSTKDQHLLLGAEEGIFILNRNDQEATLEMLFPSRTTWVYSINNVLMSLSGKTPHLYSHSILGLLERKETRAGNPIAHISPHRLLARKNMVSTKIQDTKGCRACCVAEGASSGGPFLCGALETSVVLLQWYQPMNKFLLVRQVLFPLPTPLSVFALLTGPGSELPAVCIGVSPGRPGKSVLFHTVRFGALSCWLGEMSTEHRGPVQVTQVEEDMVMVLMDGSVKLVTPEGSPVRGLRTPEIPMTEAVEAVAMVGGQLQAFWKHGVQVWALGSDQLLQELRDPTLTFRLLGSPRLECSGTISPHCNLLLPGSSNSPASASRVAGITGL

Row | Compound | IC50 (HPK1; [2]) | IC50 [1, 3] | IC50 (HPK1; [4]) | IC50 [1, 5] | IC50 (HPK1; [6])
1 | CN(C)Cc1nc(Nc2cc3nc(-c4cccnc4)sc3cn2)ccc1N1CCOCC1 [Example 6, 6-[(Dimethylamino)methyl]-5-(morpholin-4-yl)-N-[2-(pyridin-3-yl)-[1,3]thiazolo[5,4-c]pyridin-6-yl]pyridin-2-amine] | < 100 nM | 100 to 1000 nM | – | – | –
2 | COc1cccc(F)c1-c1nc2cc(Nc3ccc(N4CCOCC4)c(CN(C)C)n3)ncc2s1 [Example 26, 6-[(Dimethylamino)methyl]-N-[2-(2-fluoro-6-methoxyphenyl)-[1,3]thiazolo[5,4-c]pyridin-6-yl]-5-(morpholin-4-yl)pyridin-2-amine] | < 100 nM | 100 to 1000 nM | – | – | –
3 | CN1C[C@@H]2C[C@H]1CN2c1nccc(Nc2cc3nc(-c4ccnc(N5CCOCC5)c4)sc3cn2)n1 [Example 268, 2-[(1S,4S)-5-Methyl-2,5-diazabicyclo[2.2.1]heptan-2-yl]-N-{2-[2-(morpholin-4-yl)pyridin-4-yl]-[1,3]thiazolo[5,4-c]pyridin-6-yl}pyrimidin-4-amine] | < 100 nM | 100 to 1000 nM | – | – | –
4 | Cc1cccnc1-c1nc2cc(Nc3cncc(N4C[C@@H]5C[C@H]4CN5)n3)ncc2s1 [Example 144, 6-[(1S,4S)-2,5-Diazabicyclo[2.2.1]heptan-2-yl]-N-[2-(3-methylpyridin-2-yl)-[1,3]thiazolo[5,4-c]pyridin-6-yl]pyrazin-2-amine] | < 100 nM | 100 to 1000 nM | – | – | –
5 | CCN1C[C@@H]2C[C@H]1CN2c1nc(Nc2cc3nc(-c4cnn(C)c4)sc3cn2)ccc1F [Example 322] | – | – | < 100 nM | 100 to 1000 nM | –
6 | Cc1cccnc1-c1nc2cc(Nc3cccc(N4C[C@@H](C)N(C)[C@@H](C)C4)n3)ncc2s1 [Example 100, N-[2-(3-Methylpyridin-2-yl)-[1,3]thiazolo[5,4-c]pyridin-6-yl]-6-[(3R,5S)-3,4,5-trimethylpiperazin-1-yl]pyridin-2-amine] | < 100 nM | > 5000 nM | – | – | –
7 | CN1C[C@@H]2C[C@H]1CN2c1cccc(Nc2cc3nc(-c4ncccc4C(F)(F)F)sc3cn2)n1 [Example 92, 6-[(1S,4S)-5-Methyl-2,5-diazabicyclo[2.2.1]heptan-2-yl]-N-{2-[3-(trifluoromethyl)pyridin-2-yl]-[1,3]thiazolo[5,4-c]pyridin-6-yl}pyridin-2-amine] | < 100 nM | 100 to 1000 nM | – | – | –
8 | Cc1cccnc1-c1nc2cc(Nc3cccc(N4C[C@@H]5C[C@H]4CN5C(C)C)n3)ncc2s1 [Example 116, N-[2-(3-Methylpyridin-2-yl)-[1,3]thiazolo[5,4-c]pyridin-6-yl]-6-[(1S,4S)-5-(propan-2-yl)-2,5-diazabicyclo[2.2.1]heptan-2-yl]pyridin-2-amine] | < 100 nM | 1000 to 5000 nM | – | – | –
9 | CN1C[C@@H]2C[C@H]1CN2c1nccc(Nc2cc3nc(-c4ccnc(C(C)(O)C(F)(F)F)c4)sc3cn2)n1 (some centres unmarked) [Example 408] | – | – | < 100 nM | 100 to 1000 nM | < 100 nM
10 | Cc1cccnc1-c1nc2cc(Nc3ccc4c(n3)CNCC4)ncc2s1 [Example 300, N-[2-(3-methylpyridin-2-yl)-[1,3]thiazolo[5,4-c]pyridin-6-yl]-5,6,7,8-tetrahydro-1,7-naphthyridin-2-amine] | – | – | – | 1000 to 5000 nM | < 100 nM
11 | COc1cccc(F)c1-c1nc2cc(Nc3cccc(N4CCN(C)CC4)n3)ncc2s1 [Example 81, N-[2-(2-Fluoro-6-methoxyphenyl)-[1,3]thiazolo[5,4-c]pyridin-6-yl]-6-(4-methylpiperazin-1-yl)pyridin-2-amine] | < 100 nM | 100 to 1000 nM | – | – | –
12 | Cc1cc(-c2nc3cc(Nc4ccc(C)c(O[C@H]5CCNC5)n4)ncc3s2)ccn1 [Example 172, 5-Methyl-N-[2-(2-methylpyridin-4-yl)-[1,3]thiazolo[5,4-c]pyridin-6-yl]-6-[(3S)-pyrrolidin-3-yloxy]pyridin-2-amine] | < 100 nM | < 100 nM | – | – | –

Continued, values first:

Row | IC50 (HPK1; [2]) | IC50 [1, 3] | IC50 (HPK1; [4]) | IC50 [1, 5] | IC50 (HPK1; [6]) | Compound
13 | – | – | < 100 nM | 1000 to 5000 nM | – | Cc1cc(Nc2cc3nc(-c4cnn(CC5CC5(F)F)c4)sc3cn2)nc(N2C[C@@H]3C[C@H]2CN3C)n1 (some centres unmarked) [Example 380]
14 | – | – | < 100 nM | < 100 nM | – | Cc1cc(Nc2cc3nc(-c4cc(C(=O)N(C)C)cc(C5CC5)c4)sc3cn2)nc(N2C[C@@H]3C[C@H]2CN3CCO)n1 [Example 552]
15 | – | – | < 100 nM | < 100 nM | – | COCc1c(-c2nc3cc(Nc4cc(C)nc(N5C[C@@H]6C[C@H]5CN6C)n4)ncc3s2)cnn1C [Example 351]
16 | – | – | < 100 nM | < 100 nM | – | Cc1cc(Nc2cc3nc(-c4cccc(C(=O)N5CCCCC5)c4)sc3cn2)nc(N2C[C@@H]3C[C@H]2CN3CCO)n1 [Example 352]
17 | – | – | < 100 nM | < 100 nM | – | CCN1C[C@@H]2C[C@H]1CN2c1nc(C)cc(Nc2cc3nc(-c4cccc(C(=O)N5CCC(C)CC5)c4)sc3cn2)n1 [Example 517]
18 | – | – | < 100 nM | 100 to 1000 nM | – | Cc1cc(Nc2cc3nc(-c4cc(C#N)cc(C(=O)N(C)C)c4)sc3cn2)nc(N2C[C@@H]3C[C@H]2CN3CCO)n1 [Example 554]
19 | – | – | < 100 nM | 100 to 1000 nM | – | CCN1C[C@@H]2C[C@H]1CN2c1nc(C)cc(Nc2cc3nc(O[C@H](C)c4c(Cl)ccc(F)c4Cl)sc3cn2)n1 [Example 485]
20 | – | – | < 100 nM | 100 to 1000 nM | – | Cc1cc(Nc2cc3nc(-c4cccnc4)sc3cn2)nc(N2C[C@@H]3C[C@H]2CN3Cc2ccccc2)n1 [Example 490]
21 | – | – | < 100 nM | 100 to 1000 nM | – | Cc1cc(Nc2cc3nc(-n4cc(F)cn4)sc3cn2)nc(N2C[C@@H]3C[C@H]2CN3C)n1 [Example 429]
22 | – | – | < 100 nM | 100 to 1000 nM | – | Cc1cc(Nc2cc3nc(-c4ccnc(N5CCO[C@H](C)C5)c4)sc3cn2)nc(N2C[C@@H]3C[C@H]2CN3CCO)n1 [Example 451]
23 | – | – | < 100 nM | 100 to 1000 nM | – | CCN1C[C@@H]2C[C@H]1CN2c1nc(C)cc(Nc2cc3nc(-c4cc(C)cc(N5C(=O)CC[C@H]5C)c4)sc3cn2)n1 [Example 466]
24 | – | – | < 100 nM | 100 to 1000 nM | – | Cc1cc(Nc2cc3nc(-c4ccnc(N5CCO[C@@H](C)C5)c4)sc3cn2)nc(N2C[C@@H]3C[C@H]2CN3CCO)n1 [Example 446]
25 | – | – | < 100 nM | 100 to 1000 nM | – | COc1cccnc1-c1nc2cc(Nc3cc(C)nc(N4C[C@@H]5C[C@H]4CN5C)n3)ncc2s1 [Example 469]
26 | – | – | < 100 nM | 100 to 1000 nM | – | Cc1cc(Nc2cc3nc(-c4cnn5c4COCC5)sc3cn2)nc(N2C[C@@H]3C[C@H]2CN3C)n1 [Example 385]
27 | – | – | < 100 nM | 1000 to 5000 nM | – | Cc1cc(Nc2cc3nc(-c4ccncc4O[C@H]4CCOC4)sc3cn2)nc(N2C[C@@H]3C[C@H]2CN3C)n1 [Example 481]
28 | – | – | < 100 nM | 1000 to 5000 nM | – | Cc1cc(Nc2cc3nc(-c4cccc(C(N)=O)c4)sc3cn2)nc(N2C[C@@H]3C[C@H]2CN3CCO)n1 [Example 553]
29 | < 100 nM | 100 to 1000 nM | – | – | – | CN1C[C@@H]2C[C@H]1CN2c1cccc(Nc2cc3nc(-c4cccc(C(N)=O)c4)sc3cn2)n1 [Example 128, 3-[6-({6-[(1S,4S)-5-Methyl-2,5-diazabicyclo[2.2.1]heptan-2-yl]pyridin-2-yl}amino)-[1,3]thiazolo[5,4-c]pyridin-2-yl]benzamide]
